Test results published in patent US6291657A (priority 1993, dated 2001).

What was measured:
WEHI-3B cell lysosomes = experiment: Transmission electron microscopy of lysosomes of CBE treated WEHI-3B cells; type: cell-based, murine; settings: transmission electron microscopy (FIG. 6)
[1] = tested on: glycolipid and phospholipid species in HL-60 cells; experiment: 2D-TLC analysis of total HL-60 lipids labelled with [14C]-palmitic acid; type: cell-based, human; settings: 2D-TLC (FIG. 2)
Experimental: 2D-TLC separation was made of total HL-60 lipids labelled with [^14 C]-palmitic acid. Cells were treated with either 0.5 mM NB-DNJ or NB-DGJ or untreated (UT). Lipids were assigned as follows (untreated cells, lefthand panel, FIG. 2A): 1, gangliosides; 2, lysophospatidylcholine; 3, ceramide phosphorylcholine; 4, ceramide phosphorylethanolamine; 5, phospatidylcholine; 6, phosphatidylinositol; 7, phosphatidylethanolamine; 8, phosphatidylglycerol; 9, diglycosylceramide; 10, monoglycosylceramide; 11, cholesterol/fatty acids/neutral lipids; N and N* are unknowns; and 0 is the sample origin. Following NB-DNJ and NB-DGJ treatment (middle and righthand panels, FIGS. 2B and 2C, respectively) species 1 (gangliosides);9 (diglycosylceramide); 10 (monoglycosylceramide) and N* (unknown) were absent. The radiolabelled lipids were visualized by autoradiography.
HL-60 cells were cultured by conventional procedure as previously described by Platt et al., Eur. J. Biochem. 208, 187-193 (1992). HL-60 cells at 5×10^4 cells/ml were cultured in the presence or absence of imino sugars for 24 hr. For labelling, the two dimensional thin layer chromatography (2D-TLC) conventional method of Butters and Hughes was followed [In Vitro 17, 831-838 (1981)]. Briefly, [^14 C]-palmitic acid (56.8 mCi/mmol, ICN/Flow) was added as a sonicated preparation in foetal calf serum (FCS, Techgen, London, U.K., 0.5 μCi/ml) and the cells cultured for a further 3 days maintaining the imino sugars in the medium. The cells were harvested, washed three times with phosphate buffered saline (PBS), extracted in 1 ml chloroform:methanol (2:1 v/v) and separated by 1 dimensional TLC, loading equal counts (1D-TLC, chloroform:methanol:water (65:25:4)). For two dimensional separations the one dimensional separation was performed as described above, the plate dried overnight under vacuum and separated in the second dimension using a solvent of tetrahydrofuran: dimethoxymethane:methanol:water (10:6:4:1). Plates were air dried and exposed to Hyperfilm-MP high performance autoradiography film (Amersham).

[2] = tested on: oligosaccharide biosynthesis in HL-60 cells; experiment: Glycopeptide analysis by Con A-SEPHAROSE chromatography, HL-60 cells; type: cell-based, human
[3] = target: UDP-glucose:N-acylsphingosine glucosyltransferase; experiment: Inhibition of UDP-glucose:N-acylsphingosine glucosyltransferase; type: biochemical, rat brain, mouse macrophage (WEHI-3B); settings: rat brain or mouse macrophage homogenates; read-out: IC50
[4] = tested on: cholera toxin binding sites on H9 cells; type: cell-based, human
[5] = tested on: N-linked oligosaccharide processing of gp120 in CHO cells (α-glucosidases I and II); experiment: Endo H sensitivity of gp120 expressed in CHO cells (N-linked oligosaccharide processing); type: cell-based, Chinese hamster
Experimental: The arrows indicate the molecular weight of the untreated gp120 (120 kDa) and post endo H digestion (60 kDa). An additional band of low molecular weight (approximately 60 kDa) was present in some lanes and is a non-specific protein precipitated by the solid phase matrix.
The culture of CHO cells expressing soluble recombinant gp120 (from Dr. P. Stevens, MRC AIDS Directed Programme Reagent Project) and the radiolabelling of these cells was carried out by conventional procedure as described by Karlsson et al., J. Biol. Chem. 268, 570-576 (1993). Briefly, CHO cells were harvested mechanically, washed three times with phosphate buffered saline, 0.1M pH 7.2 (PBS) and resuspended in methionine- and cysteine-free RPMI-1640 medium (ICN-Flow Laboratories, High Wycombe, Bucks, U.K.) supplemented with 1% dialysed FCS. Cells (10^7 /ml) were preincubated in the presence or absence of NB-DNJ or NB-DGJ for 1 hr prior to the addition of 100 μCi/ml Tran^35 S-label (ICN-Flow) for 4 hr. The supernatants were collected and concentrated tenfold using a 30 kDa cut-off membrane (Amicon, Danvers, Mass., U.S.A.).
Immunoprecipitations were performed by conventional procedure as described by Karlsson supra. Supernatants were incubated with the mAb ABT 1001 monoclonal antibody (American Biotechnologies Inc., Cambridge, Mass., U.S.A.) at 0.5 μg/100 μl of supernatant for 30 min. at room temperature followed by sheep anti-mouse IgG1-coated magnetic beads (Dynal Ltd., Wirral, Merseyside, U.K., 1.2×10^7 beads per sample) for 1 hr. at 4° C. The beads were washed three times with 2% TRITON® X-100 in PBS and three times with PBS. Gp120 was eluted in […] reducing SDS-PAGE sample buffer with heating (95° C., 5 min.). Each sample was divided into two equal aliquots and 25 μl of dH2 O added to give a final volume of 50 μl. To one half of each sample 2 μl of endoglycosidase H (endo H, 1 unit/ml, Boehringer Mannheim Ltd., Lewes, Sussex, U.K.) was added and the other half left untreated. […]

α-glucosidase I and II = experiment: Inhibition of purified processing α-glucosidase I and II; type: biochemical; settings: for inhibition of processing α-glucosidases I and II / N-linked oligosaccharide processing: in words
Experimental: Porcine liver α-glucosidase I and rat liver α-glucosidase II were purified to homogeneity and assayed by conventional procedure using a [^14 C]-glucose labelled Glc3 Man9 GlcNAc2 substrate as previously described by Karlsson et al., J. Biol. Chem. 268, 570-576 (1993).
Enzymes were assayed according to procedure described hereinbefore using
The data from FIG. 8 were […]

[6] = tested on: oligosaccharide biosynthesis in BW5147 cells; experiment: Glycopeptide analysis by Con A-SEPHAROSE chromatography, BW5147 cells; type: cell-based, murine

Structure (SMILES): CCCCN1C[C@H](O)[C@@H](O)[C@@H](O)[C@H]1CO [NB-DGJ, N-butyl deoxygalactonojirimycin]
- glycolipid accumulation in lysosomes (WEHI-3B cell lysosomes): prevented the glycolipid accumulation
- gangliosides, unknown lipid (N*), mono and dihexaside species following treatment ([1]; HL-60, 0.5 mM): absent
- depletion of glycolipid species ([1]; HL-60, 500 μM): total depletion of glycolipid species
- Total 3H-mannose recovered ([2]; HL-60): 844322 cpm
- Bi-antennary ([2]; HL-60, percentage of radiolabelled glycopeptides eluted with 10 mM methylglucoside): 17.7%
- Oligo-mannose & hybrid ([2]; HL-60, percentage of radiolabelled glycopeptides eluted with 500 mM methylmannoside): 54.2%
- Tetra- & Tri-antennary ([2]; HL-60, percentage of radiolabelled glycopeptides non-bound): 28.1%
- glycopeptide profile by Con A-SEPHAROSE chromatography ([2]; HL-60 and BW5147): unchanged glycopeptide profile
- IC50 [3]: 0.0609 mM
- cholera toxin binding [4]: reduction of the binding of cholera toxin
- reduction in cholera toxin binding ([4]; h9 cells, 4320 min): approximately 70%
- inhibition of α-glucosidases I and II suggested by gp120 endo H sensitivity ([5]; 0.5 mM and 5 mM): not acting as an inhibitor of α-glucosidases I and II
- endo H sensitivity of gp120 N-linked glycans ([5]; 0.5 mM or 5 mM (FIG. 7)): partially sensitive to endo H and was indistinguishable from the untreated gp120 molecules
- inhibition of processing α-glucosidases I and II / N-linked oligosaccharide processing (α-glucosidase I and II): does not inhibit N-linked oligosaccharide processing
- inhibition of processing α-glucosidases I and II / N-linked oligosaccharide processing (α-glucosidase I and II; listed as N-butyl DGJ): does not inhibit
- IC50 (α-glucosidase I and II; mixture of purified α-glucosidases I and II): 2.13 mM
- Total 3H-mannose recovered [6]: 706873 cpm
- Bi-antennary ([6]; percentage of radiolabelled glycopeptides eluted with 10 mM methylglucoside): 7.2%
- Oligo-mannose & hybrid ([6]; percentage of radiolabelled glycopeptides eluted with 500 mM methylmannoside): 52.4%
- Tetra- & Tri-antennary ([6]; percentage of radiolabelled glycopeptides non-bound): 40.4%
